From EP0054593A1, “Myocardium protecting pyrrole derivatives with anti-arythmic and anti-platelet aggregation activity, process for their preparation and medicines containing them” (SANOFI S.A., priority 1980, dated 1982)
Like-named read-outs stand apart in the source and are kept apart here.

What was measured:
[1] = tested on: agrégation plaquettaire induite par le collagène; assay: In vitro collagen-induced platelet aggregation in platelet-rich plasma (Born turbidimetric technique); type: cell-based, humain; details: for inhibition at 100 µM: concentration 100 µM, inhibition of maximal aggregation amplitude versus control, read-out: % d'inhibition; for IC50: 10 min
Description: (§1) Les études in vitro et ex vivo de l'activité antiagrégante ont été réalisées selon la technique turbidiurétrique de Born.
Les études in vitro ont été réalisées sur du plasma riche en plaquettes (PRP) préparé à partir de sang veineux humain.
Les diverses solutions des produits à tester ont été préparées extemporanément. Les CM 7753, 7611, 7640, 7921, 7954, - 40018, 40020 ont été dissous à une concentration de 2 x 10^-2 M dans l'acétone.
Des solutions aqueuses à 2 x 10 ^-3 M ont été préparées pour les CM 40169, 40178, 2 µl des solutions acétoniques des produits ou 40 µl des solutions aqueuses sont incubés pendant 10 min à 37°C avec, respectivement, 388 et 350 µl de PRP. Après cette période d'incubation, 10 µl de la solution de collagène à 40 µg/ml sont additionnés. Pour les contrôles, 2 µl d'acétone ou 40 µl d'eau distillée sont utilisés.
(§2) L'agrégation plaquettaire a été quantifiée par la détermination graphique de l'amplitude maximale d'agrégation (AM).
(§3) Les résultats sont exprimés en % d'inhibition de ce paramètre calculé par rapport au contrôle (100 % d'agrégation). Résultats

[2] = tested on: tachycardie ventriculaire; assay: Ventricular arrhythmia model: coronary metal coil, myocardial infarction, telemetered ECG; type: in vivo, chiens; details: 50 mg/kg P.O., dogs; for Effet sur la tachycardie ventriculaire: rythme sinusal ou amélioration: sinus rhythm restored or improvement of the ratio of abnormal to sinus complexes
Description: Le pouvoir antiarythmique de ces molécules a été apprécié sur un modèle animal d'arythmie ventriculaire.
Des chiens bâtards sont anesthésiés puis soumis à la mise en place, par cathétérisme rétrograde, d'une spire métallique dans le lit coronarien. Dans le même temps, un micro-émetteur modulateur de fréquence est fixé au dos de l'animal et relié à deux électrodes précordiales.
L'animal remis dans son box accuse alors une thrombose progressive de l'artère interventriculaire antérieure. Ainsi, se constitue un infarctus myocardique localisé et transmural, générateur d'une activité électrique anormale, mais répétitive : tachycardie ventriculaire.
Dans cet état, les drogues sont administrées per os (P.O.) et le système télémétré permet de suivre en temps réel l'évolution de la disrythmie.
Un comptage des complexes systoliques sinusaux et pathologies est assuré en permanence par des procédés électroniques.
Ainsi, peut-on quantifier la qualité et la durée d'action du produit.
L'activité des produits essayés sur la tachycardie ventriculaire est exprimée soit par le rétablissement du rythme sinusal, soit par une amélioration notable du rapport : • nombre de complexes anormaux
nombre de complexes sinusaux

ADP = assay: Ex vivo ADP-induced platelet aggregation after oral dosing (Born technique); type: in vivo, babouin; details: baboons, 50 mg/kg/j oral
Description: as §1
(§4) Les études ex vivo chez le babouin ont porté uniquement sur l'activité antiagrégante du CM 7753. Dans ce cas, le CM 7753 est administré par voie buccale à raison de 50 mg/kg/j pendant une période de 5 jours.
(§5) Les prélèvements sanguins pour l'analyse de l'agrégation plaquettaire ont été effectués avant l'administration du produit, 2 h après l'administration de 50 mg/kg au jour 1 et 2 h après la dernière administration au jour 5.
as §2, §3

[3] = tested on: agrégation plaquettaire induite par le collagène; assay: Ex vivo collagen-induced platelet aggregation after oral dosing (Born technique); type: in vivo, babouin; details: Papio, 120 h, four baboons, 50 mg/kg/j oral, after 5 days of treatment, read-out: % d'inhibition
Description: as §1, §4, §5, §2, §3

Compound	inhibition at 100 µM ([1]; human PRP, collagen)	Effet sur la tachycardie ventriculaire: rythme sinusal ou amélioration [2]	other results
CCc1ccc(CC)n1C(CCN(C(C)C)C(C)C)C(N)=O (stereo not drawn) [CM 40020]	20 to 30%	–	–
Cc1ccc(C)n1C(CCN(C(C)C)C1CCCCC1)C(N)=O (stereo not drawn) [CM 40169]	20 to 30%	–	–
Cc1ccc(C)n1C(CCN1CCN2CCCC2C1)C(N)=O (stereo not drawn) [CM 40018, (Diméthyl-2,5 pyrrolyl)-1 (diaza-1,4 bicyclo[4.3.0]-nonyl-4)-4 butyramide]	20 to 30%	–	–
CCC(C)N(CCC(C(N)=O)n1c(C)ccc1C)C(C)CC (stereo not drawn) [CM 40178]	20 to 30%	–	–
CC(C)N(CCC(C(N)=O)n1cccc1)C(C)C (stereo not drawn) [CM 7921]	20 to 30%	–	–
CC(C)N(CCC(C(N)=O)(c1ccccn1)n1cccc1)C(C)C (stereo not drawn) [CM 7954, (Pyridyl-2)-2 (pyrrolyl-l)-2 diisopropylamino-4 butyramide]	–	–	IC50 ([1]; read-out: concentration qui inhibe à 50 % l'agrégation plaquettaire): ~100 µM
Cc1ccc(C)n1C(CCN(C(C)C)C(C)C)(C(N)=O)c1ccccc1 (stereo not drawn) [CM 7640]	–	Rythme sinusal ou amélioration à 90 % durant 90 min	Effet sur la tachycardie ventriculaire: duration of effect [2]: Rythme sinusal ou amélioration à 90 % durant 90 min; IC50 [1]: ~30 µM
CC(C)N(CCC(C(N)=O)(c1ccccc1)n1cccc1)C(C)C (stereo not drawn) [CM 7611, Phényl-2 (pyrrolyl-l)-2 diisopropylamino-4 butyramide]	–	70-90%	IC50 [1]: ~30 µM
Cc1ccc(C)n1C(CCN(C(C)C)C(C)C)C(N)=O (stereo not drawn) [CM 7753, (Diméthyl-2,5 pyrrolyl-1)-2 diisopropylamino-4 butyramide]	–	90%	IC50 ([1]; human PRP, 10 min incubation at 37°C, collagen, approximate value, read-out: concentration qui inhibe à 50 % l'agrégation plaquettaire): ~100 µM; activité antiagrégante vis-à-vis de l'ADP (ADP): activité antiagrégante de moindre importance; inhibition at 50 mg/kg [3]: 100%
